Source: ChEMBL document CHEMBL1150851, “Naphthopyranone glycosides from Paepalanthus microphyllus” (J Nat Prod, 2001)
In brackets after ≈: the same amount, converted by molar mass. Activity calls are given as the source filed them. The rule behind the calls is not given here.

Tests used:
[1] = system: Human immunodeficiency virus 1; assay: Antiviral activity against HIV1 MN infected in human C8166 cells assessed as reduction in antigen gp120 production by ELISA; assay type: functional, organism-based; settings: Human immunodeficiency virus 1, MN
[2] = system: Human immunodeficiency virus 1; assay: Antiviral activity against HIV1 3B infected in human C8166 cells assessed as syncytia formation at 5 fold EC50 preincubated for 5 to 6 days before infection measured after 2 days postinfection by XTT-formazan method; assay type: functional, organism-based
[3] = Cytotoxicity against uninfected human C8166 cells by XTT-formazan method; assay type: cell-based; settings: read-out: TC50 (the source's name)
[4] = Selectivity index, ratio of TC50 for uninfected human C8166 cells to EC50 for HIV1 MN infected in human C8166 cells; assay type: toxicity, cell-based; settings: uninfected C8166 cells and HIV-1 MN-infected C8166 cells, read-out: Selectivity Index

Structure (SMILES) | EC50 [1] | Activity [2] | CC50 [3] | selectivity ratio [4]
COc1cc(O[C@@H]2O[C@H](CO)[C@@H](O)[C@H](O)[C@H]2O)c2c(O)c3c(=O)oc(C)cc3c(OC)c2c1 | 38 µg/mL (≈ 81.8 µM) | inactive | 160 µg/mL (≈ 345 µM) | 4.2
COc1cc(O[C@@H]2O[C@H](CO[C@@H]3OC[C@H](O)[C@H](O)[C@H]3O)[C@@H](O)[C@H](O)[C@H]2O)c2c(O)c3c(=O)oc(C)cc3c(OC)c2c1 | 18 µg/mL (≈ 30.2 µM) | inactive | 160 µg/mL (≈ 268 µM) | 8.9
Cc1cn([C@H]2C[C@H](N=[N+]=[N-])[C@@H](CO)O2)c(=O)[nH]c1=O [ZIDOVUDINE] | 0.016 µg/mL (≈ 0.0599 µM) | – | > 1000 µg/mL | –

Further lines, with some results ahead:

EC50 [1] | Structure (SMILES) | Activity [2] | CC50 [3] | selectivity ratio [4]
75 µg/mL (≈ 120 µM) | COc1cc(O[C@@H]2O[C@H](CO[C@@H]3O[C@H](CO)[C@@H](O)[C@H](O)[C@H]3O)[C@@H](O)[C@H](O)[C@H]2O)c2c(O)c3c(=O)oc(C)cc3c(OC)c2c1 | inactive | 150 µg/mL (≈ 239 µM) | 2
30 µg/mL (≈ 49.1 µM) | COc1cc(O[C@@H]2O[C@H](CO[C@@H]3O[C@@H](C)[C@H](O)[C@@H](O)[C@H]3O)[C@@H](O)[C@H](O)[C@H]2O)c2c(O)c3c(=O)oc(C)cc3c(OC)c2c1 | inactive | 100 µg/mL (≈ 164 µM) | 3.3
